The record followed here is ChEMBL document CHEMBL1129221, “Inhibition of nitric oxide synthase by benzoxazolones” (Bioorg Med Chem Lett, 1997).

Experiment [1] deals with T1, Nitric oxide synthase, inducible (Homo sapiens, UniProt P35228). In words: Inhibitory activity against Inducible nitric oxide synthase.
Experiment [2] addresses T2, Nitric oxide synthase 1 (Homo sapiens, UniProt P29475). In words: Inhibitory activity against Neuronal nitric oxide synthase.
The target of a further experiment is T3, Nitric oxide synthase 3 (Homo sapiens, UniProt P29474).
T3 sequence (P29474 whole entry): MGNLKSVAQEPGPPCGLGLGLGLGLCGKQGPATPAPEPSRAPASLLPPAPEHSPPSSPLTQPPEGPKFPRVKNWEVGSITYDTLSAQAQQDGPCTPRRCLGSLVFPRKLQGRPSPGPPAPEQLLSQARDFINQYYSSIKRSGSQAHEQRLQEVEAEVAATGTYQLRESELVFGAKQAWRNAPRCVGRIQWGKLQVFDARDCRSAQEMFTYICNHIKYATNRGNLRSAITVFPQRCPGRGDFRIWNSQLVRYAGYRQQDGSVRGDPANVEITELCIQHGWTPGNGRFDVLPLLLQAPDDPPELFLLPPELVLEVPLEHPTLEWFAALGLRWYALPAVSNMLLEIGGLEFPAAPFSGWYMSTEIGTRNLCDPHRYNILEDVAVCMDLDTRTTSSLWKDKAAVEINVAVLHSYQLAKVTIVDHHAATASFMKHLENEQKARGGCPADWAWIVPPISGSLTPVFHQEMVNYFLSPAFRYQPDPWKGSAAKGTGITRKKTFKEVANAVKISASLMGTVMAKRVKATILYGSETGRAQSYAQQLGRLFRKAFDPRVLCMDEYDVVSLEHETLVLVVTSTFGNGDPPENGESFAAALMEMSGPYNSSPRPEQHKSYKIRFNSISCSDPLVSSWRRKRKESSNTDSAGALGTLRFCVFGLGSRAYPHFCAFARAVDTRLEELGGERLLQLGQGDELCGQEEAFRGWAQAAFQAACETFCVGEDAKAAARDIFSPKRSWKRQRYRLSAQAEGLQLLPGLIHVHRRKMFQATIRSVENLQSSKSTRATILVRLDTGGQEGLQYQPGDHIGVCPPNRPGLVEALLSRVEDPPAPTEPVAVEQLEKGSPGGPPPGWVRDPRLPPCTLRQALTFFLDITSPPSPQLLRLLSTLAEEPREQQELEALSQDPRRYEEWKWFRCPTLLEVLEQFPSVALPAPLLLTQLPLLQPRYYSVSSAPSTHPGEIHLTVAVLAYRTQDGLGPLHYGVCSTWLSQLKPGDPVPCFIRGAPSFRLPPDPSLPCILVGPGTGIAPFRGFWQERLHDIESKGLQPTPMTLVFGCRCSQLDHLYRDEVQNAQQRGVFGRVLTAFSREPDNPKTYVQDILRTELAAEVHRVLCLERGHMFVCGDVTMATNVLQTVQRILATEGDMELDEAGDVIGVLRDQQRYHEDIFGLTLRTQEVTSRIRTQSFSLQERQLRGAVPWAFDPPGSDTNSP
Kind of experiment: Inhibitory activity against Endothelial nitric oxide synthase.

In experiment [3] the target is T2, Nitric oxide synthase 1. Kind of experiment: Compound was evaluated for in vitro inhibitory activity against Neuronal nitric oxide synthase. The conditions noted are these: concentration not given here.
For experiment [4], the target named is T1, Nitric oxide synthase, inducible. Kind of experiment: In vitro inhibitory activity against Inducible nitric oxide synthase at 50 uM concentration.

T1 sequence (P35228 whole entry): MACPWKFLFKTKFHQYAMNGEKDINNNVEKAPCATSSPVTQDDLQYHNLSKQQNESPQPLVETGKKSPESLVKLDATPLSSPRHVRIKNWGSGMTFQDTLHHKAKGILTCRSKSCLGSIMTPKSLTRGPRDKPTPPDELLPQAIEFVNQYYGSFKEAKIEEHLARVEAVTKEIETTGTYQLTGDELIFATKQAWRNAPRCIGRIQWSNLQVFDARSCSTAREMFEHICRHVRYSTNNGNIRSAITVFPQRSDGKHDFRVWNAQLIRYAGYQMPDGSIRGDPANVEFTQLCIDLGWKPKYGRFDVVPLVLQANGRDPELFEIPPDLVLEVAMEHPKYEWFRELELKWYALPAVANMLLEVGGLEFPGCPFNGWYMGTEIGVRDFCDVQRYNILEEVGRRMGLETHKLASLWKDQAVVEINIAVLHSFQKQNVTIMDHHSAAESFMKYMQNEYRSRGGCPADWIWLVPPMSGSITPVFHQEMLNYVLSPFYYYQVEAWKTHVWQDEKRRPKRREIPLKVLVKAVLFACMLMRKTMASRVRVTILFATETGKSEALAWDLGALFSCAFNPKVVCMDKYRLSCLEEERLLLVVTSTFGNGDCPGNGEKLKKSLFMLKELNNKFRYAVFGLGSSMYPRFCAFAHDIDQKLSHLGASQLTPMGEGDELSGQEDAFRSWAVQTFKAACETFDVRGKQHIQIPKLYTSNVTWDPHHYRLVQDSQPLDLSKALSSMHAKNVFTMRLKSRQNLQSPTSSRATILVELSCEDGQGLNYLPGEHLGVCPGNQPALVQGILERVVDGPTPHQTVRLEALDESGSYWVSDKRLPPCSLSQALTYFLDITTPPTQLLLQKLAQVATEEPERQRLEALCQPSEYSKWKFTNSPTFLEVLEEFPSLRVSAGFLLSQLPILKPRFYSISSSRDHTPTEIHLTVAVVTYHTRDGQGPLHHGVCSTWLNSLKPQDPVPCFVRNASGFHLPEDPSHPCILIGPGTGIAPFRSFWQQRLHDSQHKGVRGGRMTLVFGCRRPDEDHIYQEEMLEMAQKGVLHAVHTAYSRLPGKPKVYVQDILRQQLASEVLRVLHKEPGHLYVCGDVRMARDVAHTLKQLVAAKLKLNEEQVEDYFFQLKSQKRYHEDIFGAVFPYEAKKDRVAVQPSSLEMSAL
T2 sequence (P29475 whole entry): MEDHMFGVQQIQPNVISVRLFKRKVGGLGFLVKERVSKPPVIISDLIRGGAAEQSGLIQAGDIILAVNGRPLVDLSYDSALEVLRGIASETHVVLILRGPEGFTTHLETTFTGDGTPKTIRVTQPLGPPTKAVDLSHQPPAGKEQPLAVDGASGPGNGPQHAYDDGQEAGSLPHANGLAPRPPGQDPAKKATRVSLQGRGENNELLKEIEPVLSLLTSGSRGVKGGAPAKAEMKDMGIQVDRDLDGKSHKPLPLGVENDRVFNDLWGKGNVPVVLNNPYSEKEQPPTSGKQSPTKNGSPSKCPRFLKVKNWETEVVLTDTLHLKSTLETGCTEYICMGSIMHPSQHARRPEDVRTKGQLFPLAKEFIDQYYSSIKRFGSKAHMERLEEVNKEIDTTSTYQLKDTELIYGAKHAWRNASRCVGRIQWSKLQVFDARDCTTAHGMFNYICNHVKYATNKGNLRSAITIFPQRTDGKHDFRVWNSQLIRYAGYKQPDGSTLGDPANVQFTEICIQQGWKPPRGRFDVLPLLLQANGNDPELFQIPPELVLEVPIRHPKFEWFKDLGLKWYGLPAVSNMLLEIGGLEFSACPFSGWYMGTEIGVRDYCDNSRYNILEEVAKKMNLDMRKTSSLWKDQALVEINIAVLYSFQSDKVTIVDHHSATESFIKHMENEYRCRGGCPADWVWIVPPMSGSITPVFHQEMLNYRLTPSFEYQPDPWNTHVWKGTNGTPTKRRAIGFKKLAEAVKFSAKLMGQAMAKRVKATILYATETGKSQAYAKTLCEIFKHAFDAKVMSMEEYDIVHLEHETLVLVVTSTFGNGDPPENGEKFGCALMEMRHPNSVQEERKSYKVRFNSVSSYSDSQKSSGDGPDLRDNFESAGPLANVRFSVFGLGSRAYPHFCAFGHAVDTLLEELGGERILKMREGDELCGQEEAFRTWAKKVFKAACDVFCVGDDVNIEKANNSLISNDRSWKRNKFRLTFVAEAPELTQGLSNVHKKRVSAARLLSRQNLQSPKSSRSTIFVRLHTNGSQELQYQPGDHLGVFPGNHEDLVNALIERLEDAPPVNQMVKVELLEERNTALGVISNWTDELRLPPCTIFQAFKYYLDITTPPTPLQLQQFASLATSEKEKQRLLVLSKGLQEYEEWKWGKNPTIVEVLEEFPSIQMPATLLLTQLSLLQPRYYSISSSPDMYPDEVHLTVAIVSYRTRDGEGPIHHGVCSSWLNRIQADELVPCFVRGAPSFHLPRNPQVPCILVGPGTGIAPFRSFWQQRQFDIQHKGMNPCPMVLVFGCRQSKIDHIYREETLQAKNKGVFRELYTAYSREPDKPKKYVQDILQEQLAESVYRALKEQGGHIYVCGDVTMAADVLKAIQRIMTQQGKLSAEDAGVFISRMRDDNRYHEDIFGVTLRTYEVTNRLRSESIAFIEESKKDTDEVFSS

For orientation: IC50 means the concentration that inhibits the measured activity by half. Read a high IC50 as lower potency. In the case of `Cc1ccc2oc(O)nc2c1`, the IC50 in experiment [1] worked out at 9.9 µM; against Nitric oxide synthase 1 [2], 50 µM; on Nitric oxide synthase 3, 10.6 µM.
On to `O=c1[nH]c2cc(F)ccc2o1`, for which the IC50 (in experiment [1]; on Nitric oxide synthase 1 [2]; against Nitric oxide synthase 3) was more than 50 µM throughout.
As to `O=c1oc2ccc(Cl)cc2n1CN1CCCCC1`, the concentration for half-maximal inhibition (IC50) in experiment [1] amounted to 1.5 µM; on Nitric oxide synthase 1 [2] it was 4.6 µM; against Nitric oxide synthase 3 it was 18.9 µM.
For `CN1CCN(Cn2c(=O)oc3ccc(Cl)cc32)CC1`, in that order: 1.2 µM, 4.4 µM and 15.5 µM.
As to `O=c1oc2ccc(Cl)cc2n1CN1CCSCC1`, the IC50 in experiment [1] amounted to 3.5 µM; on Nitric oxide synthase 1 [2] it was 4.4 µM; against Nitric oxide synthase 3, 20.3 µM.
For the compound `CN(CCc1ccccc1)Cn1c(=O)oc2ccc(Cl)cc21`, the half-maximal inhibitory concentration (IC50) in experiment [1] is 15.9 µM; on Nitric oxide synthase 1 [2], 68 µM; on Nitric oxide synthase 3 it was 15.9 µM.
For orientation: inhibition means the change of the read-out against control, counted positive when it falls. High values mean a strong effect, low ones a weak effect. Consider `CN(Cn1c(=O)oc2ccc(Cl)cc21)c1ccccn1`, for which the inhibition at Nitric oxide synthase 1 [3] came to 71%; in experiment [4] it was 74%. The half-inhibitory concentration (IC50) at Nitric oxide synthase 3 worked out at 8.4 µM.
As to `O=c1oc2ccc(Cl)cc2n1CN1CCOCC1`, the concentration for half-maximal inhibition (IC50) amounted to 0.8 µM in experiment [1], 5.6 µM against Nitric oxide synthase 1 [2] and 14.7 µM against Nitric oxide synthase 3.
For `Cc1cccc2oc(=O)[nH]c12`, the half-inhibitory concentration (IC50) (in experiment [1]; on Nitric oxide synthase 1 [2]; against Nitric oxide synthase 3) was more than 50 µM each time.
Compound `Oc1nc2ncccc2o1` showed an IC50 in experiment [1] of more than 50 µM.
Take `Cc1ccc2nc(O)oc2n1`: the IC50 in experiment [1] was 7.4 µM; on Nitric oxide synthase 1 [2], 50 µM; against Nitric oxide synthase 3 it was more than 50 µM.
In the same order, the values of `N#Cc1ccc2oc(O)nc2c1` are 14.5 µM, 50 µM and 50 µM.
In the same order, the values of `CN(Cc1ccccc1)Cn1c(=O)oc2ccc(Cl)cc21` are 13.4 µM, 11.5 µM and 13.6 µM.
For `Sc1nc2cc(Cl)ccc2o1`, in that order: more than 50 µM, more than 50 µM and more than 50 µM.
For the compound `Cc1ccc2[nH]c(=O)oc2c1`, the IC50 in experiment [1] is more than 50 µM; at Nitric oxide synthase 1 [2], 13.1 µM; against Nitric oxide synthase 3 it was more than 50 µM.
The compound `O=c1oc2ccc(Cl)cc2n1CCN1CCOCC1` had an inhibition in experiment [4] of 0%.
